Key:
HIV protease (wt) = biological target: T1, HIV protease (wt) (Human immunodeficiency virus type 1 group M subtype B, UniProt P04585); assay: HIV protease inhibitory activity, wild type; type: biochemical
T1 construct: over 45 of the 99 amino acids of the HIV protease monomer

HIV protease Mutant 9 = HIV protease Mutant 9 (Human immunodeficiency virus type 1, UniProt P04585); assay: HIV protease inhibitory activity, Mutant 9; type: biochemical; settings: Mutant 9 protease
HIV protease Mutant 8 = HIV protease Mutant 8 (Human immunodeficiency virus type 1, UniProt P04585); assay: HIV protease inhibitory activity, Mutant 8; type: biochemical; settings: Mutant 8 protease
HIV-1 WT = assay: Antiviral activity, in vitro drug sensitivity of HIV-1 isolates, WT; type: cell-based; settings: Human immunodeficiency virus 1
Method: (§1) In Vitro Drug Sensitivity of HIV-1 Laboratory Isolates to PIs
(§2) The sensitivities of HIV-1 isolates against compounds of the invention were determined as previously described with minor modifications (Shiraska et al., Proc. Natl. Acad. Sci. USA, 92, 2398-2402 (1995)).

HIV-1 Mutant 9 = assay: Antiviral activity, in vitro drug sensitivity of HIV-1 isolates, Mutant 9; type: cell-based; settings: Human immunodeficiency virus 1, read-out: Antiviral activity IC50 Mutant 9
Method: as §1, §2

HIV-1 Mutant 8 = assay: Antiviral activity, in vitro drug sensitivity of HIV-1 isolates, Mutant 8; type: cell-based; settings: Human immunodeficiency virus 1, read-out: Antiviral activity IC50 Mutant 8
Method: as §1, §2

[1] = In vivo bioavailability, rat; settings: 20 mg/kg p.o.
[2] = rat, oral administration; Miller et al., Bioorg Med Chem Lett. 1788-94 (2006); cited from earlier work

Work on `Cc1nc(COc2ccc(C[C@H](NC(=O)O[C@H]3CO[C@H]4OCC[C@H]43)[C@H](O)CN(CC(C)C)S(=O)(=O)c3ccc4occc4c3)cc2)cs1` [Compound D] yielded a Ki (HIV protease (wt)) of under 0.05 nM, a Ki (HIV protease Mutant 9) of 0.055 nM and a Ki (HIV protease Mutant 8) of under 0.05 nM. For the same compound, the IC50 (HIV-1 WT) was 1.4 nM, the IC50 (HIV-1 Mutant 9) was 32 nM and the IC50 (HIV-1 Mutant 8) was 4.2 nM. For the same compound, the “AUC (0-12)” value [1] was 11 ugxh/mL, the Cmax ([1]; in vivo, po) was 3.51 µM and the Tmax ([1]; in vivo, po) was 39.6 min. It also gave a bioavailability ([1]; in vivo, po) of 92%.
`Cc1nc(COc2ccc(C[C@H](NC(=O)O[C@H]3CO[C@H]4OCC[C@H]43)[C@H](O)CN(CC(C)C)S(=O)(=O)c3ccc4c(c3)OCO4)cc2)cs1` [GW0385, reference compound] gave a Ki (HIV protease (wt)) of 0.1 nM, a Ki (HIV protease Mutant 9) of 0.13 nM and a Ki (HIV protease Mutant 8) of under 0.05 nM. The IC50 (HIV-1 WT) was 0.8 nM, the IC50 (HIV-1 Mutant 9) was 42 nM and the IC50 (HIV-1 Mutant 8) was 3.2 nM. The “% F” value [2] was 10%.
